How the values were obtained:
Assay in all cases: KinaseProfiler kinase panel
Type in all cases: biochemical
MEK1(h) = MEK1(h) (Homo sapiens (Human), UniProt Q02750)
NLK(h) = NLK(h) (Homo sapiens (Human), UniProt Q9UBE8)
cKit(D816H)(h) = cKit(D816H)(h) (Homo sapiens (Human), UniProt P10721, D816H)
VRK2(h) = VRK2(h) (Homo sapiens (Human), UniProt Q86Y07)
Aurora-B(h) = Aurora-B(h) (Homo sapiens (Human), UniProt Q96GD4)
DMPK(h) = DMPK(h) (Homo sapiens (Human), UniProt Q09013)
CLK2(h) = CLK2(h) (Homo sapiens (Human), UniProt P49760)
PDGFRα(h) = PDGFRα(h) (Homo sapiens (Human), UniProt P16234)
Abl(h) = Abl(h) (Homo sapiens (Human), UniProt P00519)
CSK(h) = CSK(h) (Homo sapiens (Human), UniProt P41240)
DDR2(h) = DDR2(h) (Homo sapiens (Human), UniProt Q16832)
Haspin(h) = Haspin(h) (Homo sapiens (Human), UniProt Q8TF76)
PKCμ(h) = PKCμ(h) (Homo sapiens (Human), UniProt Q15139)
NEK3(h) = NEK3(h) (Homo sapiens (Human), UniProt P51956)
Ron(h) = Ron(h) (Homo sapiens (Human), UniProt Q04912)
LOK(h) = LOK(h) (Homo sapiens (Human), UniProt O94804)
EphA3(h) = EphA3(h) (Homo sapiens (Human), UniProt P29320)
IR(h) = IR(h) (Homo sapiens (Human), UniProt P06213)
Rsk2(h) = Rsk2(h) (Homo sapiens (Human), UniProt P51812)
Fms(h) = Fms(h) (Homo sapiens (Human), UniProt P07333)
MuSK(h) = MuSK(h) (Homo sapiens (Human), UniProt O15146)
NEK7(h) = NEK7(h) (Homo sapiens (Human), UniProt Q8TDX7)
SAPK2a(h) = SAPK2a(h) (Homo sapiens (Human), UniProt Q16539)
FAK(h) = FAK(h) (Homo sapiens (Human), UniProt Q05397)
ACK1(h) = ACK1(h) (Homo sapiens (Human), UniProt Q07912)
Itk(h) = Itk(h) (Homo sapiens (Human), UniProt Q08881)
Ret(h) = Ret(h) (Homo sapiens (Human), UniProt P07949)
PDGFRα(D842V)(h) = PDGFRα(D842V)(h) (Homo sapiens (Human), UniProt P16234, D842V)
Tie2(R849W)(h) = Tie2(R849W)(h) (Homo sapiens (Human), UniProt Q02763, R849W)
CK2α2(h) = CK2α2(h) (Homo sapiens (Human), UniProt P19784)
Lyn(m) = Lyn(m) (Mus musculus (Mouse), UniProt P25911)
GRK6(h) = GRK6(h) (Homo sapiens (Human), UniProt P43250)
MLK1(h) = MLK1(h) (Homo sapiens (Human), UniProt P80192)
CDK7/cyclinH/MAT1(h) = CDK7/cyclinH/MAT1(h) (Homo sapiens (Human), UniProt P50613)
CDK2/cyclinE(h) = CDK2/cyclinE(h) (Homo sapiens (Human), UniProt P24941)
FGFR1(V561M)(h) = FGFR1(V561M)(h) (Homo sapiens (Human), UniProt P11362, V561M)
JAK2(h) = JAK2(h) (Homo sapiens (Human), UniProt O60674)
PAK2(h) = PAK2(h) (Homo sapiens (Human), UniProt Q13177)
CaMKIV(h) = CaMKIV(h) (Homo sapiens (Human), UniProt Q16566)
SRPK2(h) = SRPK2(h) (Homo sapiens (Human), UniProt P78362)
SRPK2(h), sequence (P78362 whole entry): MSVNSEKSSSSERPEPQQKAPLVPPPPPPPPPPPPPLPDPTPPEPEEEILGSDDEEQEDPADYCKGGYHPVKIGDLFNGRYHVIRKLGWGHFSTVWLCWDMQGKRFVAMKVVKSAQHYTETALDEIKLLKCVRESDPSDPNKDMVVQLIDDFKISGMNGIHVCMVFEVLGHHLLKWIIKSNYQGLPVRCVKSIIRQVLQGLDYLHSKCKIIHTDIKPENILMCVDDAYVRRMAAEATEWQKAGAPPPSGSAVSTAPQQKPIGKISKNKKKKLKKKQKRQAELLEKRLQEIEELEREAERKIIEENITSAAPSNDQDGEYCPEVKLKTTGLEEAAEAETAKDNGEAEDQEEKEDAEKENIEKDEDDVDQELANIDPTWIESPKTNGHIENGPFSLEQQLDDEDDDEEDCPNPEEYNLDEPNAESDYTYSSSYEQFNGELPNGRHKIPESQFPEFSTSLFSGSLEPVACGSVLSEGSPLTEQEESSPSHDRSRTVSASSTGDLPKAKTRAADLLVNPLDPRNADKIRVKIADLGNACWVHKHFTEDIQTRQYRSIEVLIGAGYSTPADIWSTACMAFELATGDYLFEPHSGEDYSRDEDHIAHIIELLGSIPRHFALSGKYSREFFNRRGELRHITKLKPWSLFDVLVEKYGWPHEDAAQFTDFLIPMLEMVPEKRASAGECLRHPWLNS

PAK2(h), sequence (Q13177 whole entry): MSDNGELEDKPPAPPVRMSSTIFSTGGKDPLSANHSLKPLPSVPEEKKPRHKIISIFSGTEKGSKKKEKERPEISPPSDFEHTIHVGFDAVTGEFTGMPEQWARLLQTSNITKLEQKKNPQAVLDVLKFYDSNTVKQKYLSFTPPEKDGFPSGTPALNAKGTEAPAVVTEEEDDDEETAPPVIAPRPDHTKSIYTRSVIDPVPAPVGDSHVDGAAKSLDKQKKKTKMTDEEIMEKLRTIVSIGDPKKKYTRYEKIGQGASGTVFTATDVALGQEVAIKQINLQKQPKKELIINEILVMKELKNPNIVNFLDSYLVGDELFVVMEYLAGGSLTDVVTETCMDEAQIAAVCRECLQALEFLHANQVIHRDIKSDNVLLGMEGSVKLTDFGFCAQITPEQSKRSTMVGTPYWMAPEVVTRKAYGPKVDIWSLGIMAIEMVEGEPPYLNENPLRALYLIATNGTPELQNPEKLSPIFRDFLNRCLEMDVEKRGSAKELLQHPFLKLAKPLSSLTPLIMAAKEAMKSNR
Itk(h), sequence (Q08881 whole entry): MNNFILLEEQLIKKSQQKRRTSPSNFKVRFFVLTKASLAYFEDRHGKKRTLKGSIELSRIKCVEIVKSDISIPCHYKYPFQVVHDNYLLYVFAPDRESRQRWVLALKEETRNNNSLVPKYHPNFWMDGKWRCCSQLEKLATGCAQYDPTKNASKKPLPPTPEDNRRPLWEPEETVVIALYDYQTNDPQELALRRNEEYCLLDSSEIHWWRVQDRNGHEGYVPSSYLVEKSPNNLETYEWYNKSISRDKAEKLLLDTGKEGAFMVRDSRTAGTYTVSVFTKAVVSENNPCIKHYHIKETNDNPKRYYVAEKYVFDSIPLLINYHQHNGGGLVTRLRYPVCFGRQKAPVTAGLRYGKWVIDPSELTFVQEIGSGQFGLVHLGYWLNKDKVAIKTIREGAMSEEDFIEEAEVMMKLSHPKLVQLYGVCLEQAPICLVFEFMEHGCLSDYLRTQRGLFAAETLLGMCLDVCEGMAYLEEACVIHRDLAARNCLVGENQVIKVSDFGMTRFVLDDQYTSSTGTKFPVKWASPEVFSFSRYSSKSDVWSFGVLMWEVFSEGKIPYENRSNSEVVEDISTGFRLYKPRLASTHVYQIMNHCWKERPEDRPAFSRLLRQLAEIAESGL
MEK1(h), sequence (Q02750 whole entry): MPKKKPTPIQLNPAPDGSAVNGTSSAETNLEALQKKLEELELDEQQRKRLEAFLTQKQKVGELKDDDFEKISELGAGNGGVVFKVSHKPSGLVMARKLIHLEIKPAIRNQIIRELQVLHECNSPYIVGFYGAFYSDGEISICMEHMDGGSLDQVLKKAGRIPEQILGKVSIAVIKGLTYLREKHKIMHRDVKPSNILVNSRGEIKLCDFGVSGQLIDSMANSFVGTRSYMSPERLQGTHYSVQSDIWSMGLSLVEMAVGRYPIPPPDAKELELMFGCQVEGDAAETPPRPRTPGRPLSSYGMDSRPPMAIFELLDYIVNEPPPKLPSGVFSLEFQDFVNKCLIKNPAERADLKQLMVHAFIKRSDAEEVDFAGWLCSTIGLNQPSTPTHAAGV
CaMKIV(h), sequence (Q16566 whole entry): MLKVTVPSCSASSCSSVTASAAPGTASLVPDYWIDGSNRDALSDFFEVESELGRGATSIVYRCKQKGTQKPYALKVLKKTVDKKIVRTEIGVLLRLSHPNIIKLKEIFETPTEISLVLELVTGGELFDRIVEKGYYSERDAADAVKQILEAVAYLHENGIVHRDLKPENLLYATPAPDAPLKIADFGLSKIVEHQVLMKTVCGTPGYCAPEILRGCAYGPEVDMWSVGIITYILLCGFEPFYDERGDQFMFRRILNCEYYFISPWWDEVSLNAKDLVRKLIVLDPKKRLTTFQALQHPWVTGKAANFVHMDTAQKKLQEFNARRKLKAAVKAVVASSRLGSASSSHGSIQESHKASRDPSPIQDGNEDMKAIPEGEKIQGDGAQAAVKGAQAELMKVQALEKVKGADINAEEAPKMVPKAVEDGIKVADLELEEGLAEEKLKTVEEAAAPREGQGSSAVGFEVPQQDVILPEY
FGFR1(V561M)(h), sequence (P11362 22-822 V561M): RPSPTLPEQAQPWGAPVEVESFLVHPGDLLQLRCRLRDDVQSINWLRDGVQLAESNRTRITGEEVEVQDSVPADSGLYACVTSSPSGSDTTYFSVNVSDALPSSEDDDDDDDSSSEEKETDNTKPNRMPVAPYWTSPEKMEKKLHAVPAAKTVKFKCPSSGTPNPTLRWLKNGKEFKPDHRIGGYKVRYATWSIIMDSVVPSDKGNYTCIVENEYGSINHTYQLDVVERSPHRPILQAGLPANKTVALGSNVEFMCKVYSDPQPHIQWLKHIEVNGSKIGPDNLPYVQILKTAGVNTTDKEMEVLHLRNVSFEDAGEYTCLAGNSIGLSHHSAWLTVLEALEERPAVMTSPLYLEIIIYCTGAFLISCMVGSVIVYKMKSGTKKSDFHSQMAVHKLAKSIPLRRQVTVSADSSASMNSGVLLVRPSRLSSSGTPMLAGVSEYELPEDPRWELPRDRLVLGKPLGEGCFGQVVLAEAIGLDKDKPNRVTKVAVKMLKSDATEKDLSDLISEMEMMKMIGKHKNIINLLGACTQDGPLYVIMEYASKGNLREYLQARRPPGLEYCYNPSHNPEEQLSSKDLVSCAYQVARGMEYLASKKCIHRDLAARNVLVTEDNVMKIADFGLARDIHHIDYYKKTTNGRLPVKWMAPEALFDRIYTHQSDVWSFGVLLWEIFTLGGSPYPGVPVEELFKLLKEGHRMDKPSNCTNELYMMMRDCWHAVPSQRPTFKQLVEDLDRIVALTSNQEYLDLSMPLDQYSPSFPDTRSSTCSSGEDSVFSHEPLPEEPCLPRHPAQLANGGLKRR
PDGFRα(D842V)(h), sequence (P16234 24-1089 D842V): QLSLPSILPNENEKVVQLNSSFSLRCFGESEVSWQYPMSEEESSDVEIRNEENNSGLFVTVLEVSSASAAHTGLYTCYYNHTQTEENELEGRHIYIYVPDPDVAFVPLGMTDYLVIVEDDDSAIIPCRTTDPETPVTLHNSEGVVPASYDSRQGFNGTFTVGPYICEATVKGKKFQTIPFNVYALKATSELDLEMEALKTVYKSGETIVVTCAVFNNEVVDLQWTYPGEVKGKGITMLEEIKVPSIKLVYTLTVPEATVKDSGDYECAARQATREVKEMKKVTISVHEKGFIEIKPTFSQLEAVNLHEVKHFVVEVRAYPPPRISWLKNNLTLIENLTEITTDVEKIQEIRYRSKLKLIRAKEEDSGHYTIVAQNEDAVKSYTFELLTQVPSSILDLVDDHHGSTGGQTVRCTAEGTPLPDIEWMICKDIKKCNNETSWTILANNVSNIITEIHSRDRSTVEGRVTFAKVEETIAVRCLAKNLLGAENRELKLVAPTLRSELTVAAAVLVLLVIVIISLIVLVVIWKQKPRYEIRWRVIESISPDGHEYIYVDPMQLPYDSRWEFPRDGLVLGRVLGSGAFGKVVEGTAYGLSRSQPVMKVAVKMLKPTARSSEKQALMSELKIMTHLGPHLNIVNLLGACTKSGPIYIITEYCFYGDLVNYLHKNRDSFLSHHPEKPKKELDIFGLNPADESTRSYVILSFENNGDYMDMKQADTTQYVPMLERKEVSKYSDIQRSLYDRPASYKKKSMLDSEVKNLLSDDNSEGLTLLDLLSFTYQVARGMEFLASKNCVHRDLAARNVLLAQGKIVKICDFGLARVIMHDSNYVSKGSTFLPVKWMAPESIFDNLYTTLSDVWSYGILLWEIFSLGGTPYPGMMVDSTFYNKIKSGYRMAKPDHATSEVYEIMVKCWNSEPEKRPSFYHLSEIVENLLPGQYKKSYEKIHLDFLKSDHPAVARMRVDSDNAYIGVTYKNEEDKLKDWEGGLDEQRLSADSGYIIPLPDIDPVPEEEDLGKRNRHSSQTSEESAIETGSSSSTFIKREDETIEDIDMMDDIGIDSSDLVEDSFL
SAPK2a(h), sequence (Q16539 whole entry): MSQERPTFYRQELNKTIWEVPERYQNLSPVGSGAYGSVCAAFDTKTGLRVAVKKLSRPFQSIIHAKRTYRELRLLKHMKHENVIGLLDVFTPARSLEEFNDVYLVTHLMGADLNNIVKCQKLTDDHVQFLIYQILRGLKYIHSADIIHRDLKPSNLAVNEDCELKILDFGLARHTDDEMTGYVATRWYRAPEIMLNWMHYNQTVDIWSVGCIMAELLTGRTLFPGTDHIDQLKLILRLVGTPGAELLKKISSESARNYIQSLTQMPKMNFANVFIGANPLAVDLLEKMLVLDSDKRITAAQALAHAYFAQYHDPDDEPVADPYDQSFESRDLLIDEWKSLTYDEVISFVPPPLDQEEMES
PDGFRα(h), sequence (P16234 24-1089): as the sequence (P16234 24-1089 D842V) above, with V819D counted along it

Structure (SMILES): CCn1c(N2CCNCC2)nc2c(Br)c(Br)c(Br)c(Br)c21 [Compound 416, 4,5,6,7-tetrabromo-1-ethyl-2-(piperazin-1-yl)-1H-benzo[d]imidazole]
- remaining activity at 1 µM (MEK1(h)): 73%
- remaining activity at 1 µM (NLK(h)): 85%
- remaining activity at 1 µM (cKit(D816H)(h)): 6%
- remaining activity at 1 µM (VRK2(h)): 103%
- remaining activity at 1 µM (Aurora-B(h)): 80%
- remaining activity at 1 µM (DMPK(h)): 97%
- remaining activity at 1 µM (CLK2(h)): 2%
- remaining activity at 1 µM (PDGFRα(h)): 98%
- remaining activity at 1 µM (Abl(h)): 107%
- remaining activity at 1 µM (CSK(h)): 91%
- remaining activity at 1 µM (DDR2(h)): 105%
- remaining activity at 1 µM (Haspin(h)): 2%
- remaining activity at 1 µM (PKCμ(h)): 30%
- remaining activity at 1 µM (NEK3(h)): 85%
- remaining activity at 1 µM (Ron(h)): 108%
- remaining activity at 1 µM (LOK(h)): 50%
- remaining activity at 1 µM (EphA3(h)): 94%
- remaining activity at 1 µM (IR(h)): 104%
- remaining activity at 1 µM (Rsk2(h)): 81%
- remaining activity at 1 µM (Fms(h)): 72%
- remaining activity at 1 µM (MuSK(h)): 103%
- remaining activity at 1 µM (NEK7(h)): 115%
- remaining activity at 1 µM (SAPK2a(h)): 99%
- remaining activity at 1 µM (FAK(h)): 94%
- remaining activity at 1 µM (ACK1(h)): 97%
- remaining activity at 1 µM (Itk(h)): 105%
- remaining activity at 1 µM (Ret(h)): 27%
- remaining activity at 1 µM (PDGFRα(D842V)(h)): 17%
- remaining activity at 1 µM (Tie2(R849W)(h)): 101%
- remaining activity at 1 µM (CK2α2(h)): 73%
- remaining activity at 1 µM (Lyn(m)): 73%
- remaining activity at 1 µM (GRK6(h)): 91%
- remaining activity at 1 µM (MLK1(h)): 87%
- remaining activity at 1 µM (CDK7/cyclinH/MAT1(h)): 25%
- remaining activity at 1 µM (CDK2/cyclinE(h)): 6%
- remaining activity at 1 µM (FGFR1(V561M)(h)): 69%
- remaining activity at 1 µM (JAK2(h)): 121%
- remaining activity at 1 µM (PAK2(h)): 95%
- remaining activity at 1 µM (CaMKIV(h)): 85%
- remaining activity at 1 µM (SRPK2(h)): 102%

— patent US8604217B2, “Compound, a process for its preparation, a pharmaceutical composition, use of a compound, a method for modulating or regulating serine/threonine kinases and a serine/threonine kinases modulating agent” (Selvita S.A., priority 2009, dated 2013)
